Where “and” joins values, the source holds several entries; their conditions need not be identical. Equal values may be shown once. Read-outs that look alike come from different tables or passages of the source.
Experiments:
leak current in OHCs = target: T1, leak current in OHCs (Mus musculus, UniProt Q8R4P5); test: Ion-permeation tests of the leak current (ion substitution in the external solution); format: cell-based; conditions: 150 mM NaCl partially or completely replaced (150 mM CsCl; 75 mM Ca2+); compared with Na+
T1 construct: the basilar membrane with hair cells was acutely dissected from neonatal mice; endogenous in cells; host or cells: outer hair cells of acutely dissected neonatal mouse cochlea
T1 sequence (Q8R4P5 1-757): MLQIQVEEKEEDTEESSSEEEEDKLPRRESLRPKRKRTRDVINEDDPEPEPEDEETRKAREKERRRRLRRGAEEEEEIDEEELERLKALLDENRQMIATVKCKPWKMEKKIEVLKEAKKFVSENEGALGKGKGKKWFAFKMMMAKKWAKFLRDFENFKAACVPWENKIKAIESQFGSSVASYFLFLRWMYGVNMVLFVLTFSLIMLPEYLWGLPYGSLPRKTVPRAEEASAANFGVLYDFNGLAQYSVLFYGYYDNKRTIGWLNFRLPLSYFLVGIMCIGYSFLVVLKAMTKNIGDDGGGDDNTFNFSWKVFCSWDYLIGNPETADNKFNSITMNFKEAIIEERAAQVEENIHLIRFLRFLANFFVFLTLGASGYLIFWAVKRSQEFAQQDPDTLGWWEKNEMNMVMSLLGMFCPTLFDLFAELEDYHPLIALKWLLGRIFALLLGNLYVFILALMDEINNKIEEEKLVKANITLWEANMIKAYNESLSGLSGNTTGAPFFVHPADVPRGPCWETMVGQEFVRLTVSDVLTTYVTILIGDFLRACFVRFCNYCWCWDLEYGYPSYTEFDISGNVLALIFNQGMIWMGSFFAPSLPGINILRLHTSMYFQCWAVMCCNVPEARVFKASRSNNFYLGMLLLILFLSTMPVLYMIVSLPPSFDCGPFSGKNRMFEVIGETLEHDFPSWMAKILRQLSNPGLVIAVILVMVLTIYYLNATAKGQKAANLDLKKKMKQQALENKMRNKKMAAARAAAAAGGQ
Protocol: (§1) Hair cells were recorded using whole-cell voltage or current clamp as previously described ([Xiong et al., 2012]). All experiments were performed at room temperature (20–25°C). Briefly, the basilar membrane with hair cells was acutely dissected from neonatal mice. […] The acutely isolated or cultured basilar membrane was used for electrophysiological recording within 1 h. Hair cells were imaged under an upright microscope (BX51WI, Olympus, Tokyo, Japan) with a 60 × water immersion objective and an sCMOS camera (ORCA Flash4.0, Hamamatsu, Hamamatsu City, Japan) controlled by MicroManager 1.6 software ([Edelstein et al., 2010]). Patch pipettes were made from borosilicate glass capillaries (BF150-117-10, Sutter Instrument Co., Novato, CA) with a pipette puller (P-2000, Sutter) and polished on a microforge (MF-830, Narishige, Tokyo, Japan) to resistances of 4–6 M'Ω. Intracellular solution contained (in mM): 140 CsCl, 1 MgCl2, 0.1 EGTA, 2 Mg-ATP, 0.3 Na-GTP, and 10 H-HEPES, pH 7.2), except when CsCl was replaced with KCl in current-clamp. Hair cells were recorded with a patch-clamp amplifier (EPC 10 USB and Patchmaster software, HEKA Elektronik, Lambrecht/Pfalz, Germany).
(§2) In Figure 6A, LiCl and CsCl were 150 mM, completely substituting for NaCl.

leak current = target: T2, leak current (Mus musculus, UniProt Q8R4P5); test: Background leak current in graded Ca2+ and Na+ concentrations (wild-type and Tmc1-knockout OHCs); format: cell-based; conditions: 35 mM [Ca2+]o
T2 construct: the basilar membrane with hair cells was acutely dissected from neonatal mice; endogenous in cells; host or cells: outer hair cells of acutely dissected neonatal mouse cochlea
T2 sequence (Q8R4P5 1-757): T1 sequence (Q8R4P5 1-757)
Protocol: as §1, §2
The osmotic pressure of each solution was re-adjusted to 300–320 mOsm/kg with sucrose, and the pH was adjusted to 7.4.

MET channel [1] = target: T3, MET channel (Mus musculus, UniProt Q8R4P5); test: MET current in graded Ca2+ and Na+ concentrations; format: cell-based; conditions: wild-type OHCs
T3 construct: the basilar membrane with hair cells was acutely dissected from neonatal mice; endogenous in cells; host or cells: outer hair cells of acutely dissected neonatal mouse cochlea
Protocol: as §1, with “Intracellular solution contained (in mM): 140 CsCl, 1 MgCl2, 0.1 EGTA, 2 Mg-ATP, 0.3 Na-GTP, and 10 H-HEPES, pH 7.2), except when CsCl was replaced with KCl in current-clamp.” left out
The hair bundle was deflected by two types of mechanical stimulus, fluid jet and glass probe. […] The hair-bundle-removed OHCs with good condition were further recorded. Examined by a fluid-jet stimulation, the OHCs without obvious MET current were further measured for the leak current. […]

MET channel [2] = target: T3, MET channel; test: Location-specific macroscopic MET current in OHCs, fluid-jet stimulation; format: cell-based; conditions: wild-type OHCs in 35 mM Ca2+
Protocol: as §1
(§3) For single-channel recordings, we followed published procedures ([Ricci et al., 2003]; [Xiong et al., 2012]). The intracellular solution was the same for macroscopic and microscopic current recording. […] After bundle destruction, fresh external solution was given to re-establish the corresponding extracellular ionic environment. […] Only traces with obvious single-channel events were included for analyzing.
The sampling rate was 1 kHz for leak current recording, 50 kHz for the IV protocol and current-clamp recording, and 100 kHz for unitary channel recording. […]
(§4) The hair bundle was deflected by two types of mechanical stimulus, fluid jet and glass probe. […] The hair-bundle-removed OHCs with good condition were further recorded. Examined by a fluid-jet stimulation, the OHCs without obvious MET current were further measured for the leak current.

MET channel [3] = test: Unitary MET channel current recording in OHCs; format: cell-based, mouse
Text: as §3
(§5) The sampling rate was 1 kHz for leak current recording, 50 kHz for the IV protocol and current-clamp recording, and 100 kHz for unitary channel recording. The voltage-clamp used a –70 mV holding potential, and the current-clamp was held at 0 pA. Only recordings with a current baseline <20 pA in NMDG solution were used for statistical analysis.
(§6) The hair bundle was deflected by two types of mechanical stimulus, fluid jet and glass probe. The fluid jet stimulation was performed as described previously ([Beurg et al., 2014]). In brief, a 40 Hz sinusoidal wave stimulus was delivered by a 27-mm-diameter piezoelectric disc driven by a home-made piezo amplifier pipette with a tip diameter of 3–5 μm positioned 5–10 μm from the hair bundle to evoke maximum MET currents. […] The actuator was driven with voltage steps that were low-pass filtered at 10 KHz. To avoid bundle damage caused by overstimulation, the glass probe was shaped to have a slightly smaller diameter than the hair bundles, and the stimulation distance was 800 nm for macroscopic current and 100 nm for unitary channel recording. For hair bundle removal, a pipette with 1 μm diameter tip was used to suck away the hair bundles of the target OHCs. The hair-bundle-removed OHCs with good condition were further recorded. Examined by a fluid-jet stimulation, the OHCs without obvious MET current were further measured for the leak current.

MET channel [4] = test system: MET channel; parameters: method as in Kim and Fettiplace, 2013; conditions: P5 apical OHCs; ref Kim and Fettiplace, 2013; cited from earlier work
MET channel [5] = target: T3, MET channel; test: MET current (IMET) inhibition by blockers, whole-cell voltage clamp of OHCs with glass-probe hair-bundle deflection; format: cell-based
Protocol: All experiments were performed at room temperature (20–25°C). Briefly, the basilar membrane with hair cells was acutely dissected from neonatal mice. […] The acutely isolated or cultured basilar membrane was used for electrophysiological recording within 1 h. […] Hair cells were recorded with a patch-clamp amplifier (EPC 10 USB and Patchmaster software, HEKA Elektronik, Lambrecht/Pfalz, Germany).
as §5
as §6, with “The fluid jet stimulation was performed as described previously ([Beurg et al., 2014]).” left out
(§7) Dose-inhibition curves were fitted with a Hill equation: Ix/Imax=X^h/(K^h+X^h))
(§8) Where K is the half-inhibition dose (IC50) and h is the Hill slope. Imax is the maximal current in control condition.

[6] = target: T4, TMC1-mediated leak conductance (Mus musculus, UniProt Q8R4P5); test: Background/leak current (IBG) inhibition by blockers, whole-cell voltage clamp of OHCs; format: cell-based
T4 sequence (Q8R4P5 1-757): T1 sequence (Q8R4P5 1-757)
Protocol: as §1, with “Intracellular solution contained (in mM): 140 CsCl, 1 MgCl2, 0.1 EGTA, 2 Mg-ATP, 0.3 Na-GTP, and 10 H-HEPES, pH 7.2), except when CsCl was replaced with KCl in current-clamp.” left out
as §5, §7, §8

[7] = target: T5, TMC1-mediated leak current (Mus musculus, UniProt Q8R4P5); test: MET-independent leak current (ILeak) in OHCs, MET channel closed by fluid jet or 100 μM DHS, NMDG subtraction (also by cochlear location and age); format: cell-based; conditions: 0.3 mM Ca2+
T5 construct: the basilar membrane with hair cells was acutely dissected from neonatal mice; endogenous in cells; host or cells: outer hair cells of acutely dissected neonatal mouse cochlea
T5 sequence (Q8R4P5 1-757): T1 sequence (Q8R4P5 1-757)
Protocol: Thus, the IBG may come from the resting MET current. […] A sinusoidal fluid jet deflected the hair bundle back and forth to open and close the MET channels (Figure 3A, inset). The Im was 98 pA at rest (Figure 3A,B), while the Im was 45 pA at fluid-jet-closed status (Figure 3B, #1). […] Thus, the ILeak persisted in either mechanical closure or pharmacological blockade of the MET channel (Figure 3C).
as §1
The sampling rate was 1 kHz for leak current recording, 50 kHz for the IV protocol and current-clamp recording, and 100 kHz for unitary channel recording. The voltage-clamp used a –70 mV holding potential, and the current-clamp was held at 0 pA. […]
as §4

[8] = OHCs, […] Ca2+, holding −70 mV, Hill fit; read-out: IC50, IBG (leak conductance)

T3 sequence (Q4KL25 whole entry partner, one chain of several): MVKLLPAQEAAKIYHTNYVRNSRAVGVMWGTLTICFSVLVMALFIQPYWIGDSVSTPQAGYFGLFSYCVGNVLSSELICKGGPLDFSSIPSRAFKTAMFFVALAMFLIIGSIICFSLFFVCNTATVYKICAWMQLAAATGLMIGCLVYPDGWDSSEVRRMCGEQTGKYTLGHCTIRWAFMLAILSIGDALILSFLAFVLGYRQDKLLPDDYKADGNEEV
T3 sequence (Q8K467 29-153 partner, one chain of several): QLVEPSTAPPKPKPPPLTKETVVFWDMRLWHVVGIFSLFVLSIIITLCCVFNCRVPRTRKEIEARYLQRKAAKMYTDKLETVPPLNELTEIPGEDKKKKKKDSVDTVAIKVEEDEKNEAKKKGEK
T3 sequence (Q9Z309 whole entry partner, one chain of several): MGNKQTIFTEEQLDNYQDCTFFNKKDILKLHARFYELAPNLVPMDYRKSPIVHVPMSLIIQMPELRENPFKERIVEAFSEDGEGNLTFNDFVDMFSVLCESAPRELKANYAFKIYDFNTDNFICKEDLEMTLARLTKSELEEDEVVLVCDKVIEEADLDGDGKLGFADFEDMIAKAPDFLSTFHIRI

SMILES: [Ca+2].[Cl-].[Cl-] [Ca^2+, CaCl2]
- size of ILeak conducted by the substituted cation (leak current in OHCs): robustly blocked
- block of the leak current (leak current): sufficient to block the leak current to an extent similar to TMC1 removal in OHCs
- [Ca2+]o after which the MET current reached a plateau, sufficient to block the leak current (MET channel [1]): > 10 mM
- macroscopic IMET (MET channel [2]; location D05, holding −70 mV): –369 ± 13 pA
- macroscopic IMET (MET channel [2]; location D40, holding −70 mV): –384 ± 30 pA
- macroscopic IMET (MET channel [2]; location D60, holding −70 mV): –461 ± 31 pA
- unitary MET channel current (MET channel [3]; 35 mM Ca2+, location D05, holding −70 mV): –4.7 ± 0.1 pA
- unitary MET channel current (MET channel [3]; 35 mM Ca2+, location D20, holding −70 mV): –4.8 ± 0.1 pA
- unitary MET channel current (MET channel [3]; 35 mM Ca2+, location D60, holding −70 mV): –4.9 ± 0.1 pA
- unitary MET channel current (MET channel [3]; 35 mM [Ca2+]o, both low-frequency and high-frequency OHCs): ~ 5 pA
- Ca2+ permeability of the MET channel, PCa/PCs (MET channel [4]): around six

SMILES: [La+3] [La3+]
- met (normalized) (MET channel [5]; La3+ 4000): 0.01513 and 0.01398 and 0.02694 and 0.01393 and 0.02154 and 0.01619 and 0.02515

SMILES: [Cl][La]([Cl])[Cl] [La^3+, LaCl3]
- IC50 (MET channel [5]; OHCs, 800 nm step deflection, […] Ca2+, holding −70 mV, Hill fit, read-out: IC50, IMET): 259 µM
- IC50 [6, 8]: 531 µM

SMILES: COc1cc2c3cc1Oc1cc(ccc1O)C[C@@H]1c4c(cc(OC)c(O)c4Oc4ccc(cc4)C[C@@H]3N(C)CC2)CC[N+]1(C)C [dTC, d-tubocurarine]
- IC50 (MET channel [5]): 6 µM
- Leak nor ([6]; dTC 0.01): 1.062 and 1.003 and 1.024 and 0.9706 and 0.8444 and 0.8511 and 0.9123
- effect on the leak current compared with the MET current ([6]; graded concentrations): affected the leak current, albeit at higher concentrations than the MET current
- IC50 ([6]; read-out: IC50, IBG (leak conductance); OHCs, […] Ca2+, holding −70 mV, Hill fit): 82 µM

SMILES: [Gd+3] [Gd3+]
- MET (normalized), first block c1-c15 (MET channel [5]; Gd3+ 4000): 0.01958 and 0.0181 and 0.03486 and 0.01803 and 0.02788 and 0.02096 and 0.03255

SMILES: [Cl][Gd]([Cl])[Cl] [Gd^3+, GdCl3]
- effect on the leak current ([6]; [Gd3+]o up to 80 μM): not affected

SMILES: N=C(N)NC(=O)c1nc(Cl)c(N)nc1N [Amiloride, amiloride]
- effect on the leak current compared with the MET current ([6]; graded concentrations): affected the leak current, albeit at higher concentrations than the MET current

SMILES: CN[C@@H]1[C@H](O[C@H]2[C@H](O[C@H]3[C@H](O)[C@@H](O)[C@H](NC(=N)N)[C@@H](O)[C@@H]3NC(=N)N)O[C@@H](C)[C@]2(O)CO)O[C@@H](CO)[C@H](O)[C@H]1O [DHS, dihydrostreptomycin]
- IC50 (MET channel [5]; read-out: IC50, IMET): 15 µM
- blocking effect on the current baseline ([6]; 100 μM, working concentration that blocks MET channels): no blocking effect
- Leak (normalized) ([6]; DHS 100 μM): 0.7251 and 0.66 and 1.086 and 0.62 and 0.8723 and 0.8832 and 0.9258
- IC50 [6, 8]: 487 µM
- DHS-NMDG (ILeak subtracted from that closed by 100 μM DHS), mean ± SEM ([7]; holding −70 mV): –65 ± 6 pA
- membrane current in 144 Na + 0.1 DHS (IDHS) ([7]; holding −70 mV): 55 pA
- DHS-NMDG subtracted current, individual cells ([7]; source data of Figure 3C): -80.6086 pA and -48.8286 pA and -49.155 pA and -61.767 pA and -98.5004 pA and -60.6081 pA and -57.9458 pA and -59.6138 pA

SMILES: [Cl-].[Cs+] [Cs^+, CsCl]
- size of ILeak conducted by the substituted cation (leak current in OHCs): slightly larger
